Measured values reported in US20160176769A1, “PARTICULATE NITRIFICATION INHIBITOR SYSTEMS” (Ballance Agri-Nutrients Limited, priority 2008, published 2016).

Tested on: nitrification in soil
Assay: closed soil incubation experiment (nitrate and ammonium analyses of incubated soil)
Conditions: urea approx. 200 kg N/ha, Horotiu silt loam, 20°C
Experimental: A closed soil incubation experiment was established with the three compositions or products. The beat treated DCD was added at 10 kg/ha and the DCD/P fertiliser blends were added at 10 kg DCD/ha equivalent.
A control (urea only) and 2 DCD rates (10 kg DCD/ha and 1 kg DCD/ha) were included. Ten kg/ha is a standard rate of DCD application and matches the DCD/P fertiliser rate while 1 kg/ha matches the DCD rate applied in the heat treated product which was 10% W /W DCD. All treatments received urea solution at approximately 200 kg N/ha, and were replicated three times.
The soil was a Horotiu silt loam (Yellow Brown Loam) collected to a depth of approximately 100 mm from a site on the Ruakuta farm. The soil was sieved through a 4 mm sieve and stored at 4 ° C. overnight. Sub-samples were taken to determine the moisture content, soil water holding capacity and initial inorganic N concentration. To measure moisture content, subsamples were dried at 105° C. for 24 hours.
Stock solutions of urea, DCD and heated treated DCD were prepared. The compositions were diluted in water to aid dispersion through the soil and the more accurate addition of small amounts of material. The DCD/fertiliser blends however were weighed and applied dry as the material was largely insoluble.
Each replicated treatment was added to 150 g of dry soil equivalent (195 g field moist soil) in a resealable plastic bag. Distilled water was added as necessary to increase the soil moisture to around 60% of water holding capacity. The contents of each bag were mixed thoroughly, and the bags sealed to include as much air as possible to ensure an aerobic environment was maintained. The bags were placed in an incubator set at 20°C. for the duration of the experiment (14 days).
Soil sub-samples were taken from the bags at 2, 5, 9 and 14 days after incubation commenced for ammonium and nitrate analysis. The equivalent of approximately 5 g dry weight of soil was weighed into 150 mL flasks, 50 mL of 2 M potassium chloride (KCl) was added and the flasks shaken for one hour using end-over-end shakers (Mulvaney, 1996). The extractant was filtered (Whatman #42 filter paper) before being frozen prior to analysis for nitrate-N and ammoniumn-N using a Skalar segmented flow analyser. The data were statistically analysed using the ANOVA directive of GenStat (10th Edition) and L.S.D. (least significant difference) were calculated.

[1] = Day 2, applied at 10 kg/ha (blends 10 kg DCD/ha equivalent)
[2] = Day 5, applied at 10 kg/ha (blends 10 kg DCD/ha equivalent)
[3] = Day 9, applied at 10 kg/ha (blends 10 kg DCD/ha equivalent)
[4] = Day 14, applied at 10 kg/ha (blends 10 kg DCD/ha equivalent)

Structure (SMILES): N#CN=C(N)N [DCD, dicyandiamide]
- Average ammonium concentration in soil (Day 2, applied at 1 kg/ha): 149.7 μg NH4—N/g soil
- Average nitrate concentration in soil (Day 2, applied at 1 kg/ha): 55.8 μg NO3—N/g soil
- Average ammonium concentration in soil [1]: 159.7 μg NH4—N/g soil
- Average nitrate concentration in soil [1]: 48.1 μg NO3—N/g soil
- Average ammonium concentration in soil (Day 5, applied at 1 kg/ha): 81.6 μg NH4—N/g soil
- Average nitrate concentration in soil (Day 5, applied at 1 kg/ha): 139.4 μg NO3—N/g soil
- Average ammonium concentration in soil [2]: 106.2 μg NH4—N/g soil
- Average nitrate concentration in soil [2]: 108.7 μg NO3—N/g soil
- Average ammonium concentration in soil (Day 9, applied at 1 kg/ha): 23.2 μg NH4—N/g soil
- Average nitrate concentration in soil (Day 9, applied at 1 kg/ha): 193.7 μg NO3—N/g soil
- Average ammonium concentration in soil [3]: 63.1 μg NH4—N/g soil
- Average nitrate concentration in soil [3]: 148.1 μg NO3—N/g soil
- Average ammonium concentration in soil (Day 14, applied at 1 kg/ha): 1.3 μg NH4—N/g soil
- Average nitrate concentration in soil (Day 14, applied at 1 kg/ha): 233.8 μg NO3—N/g soil
- Average ammonium concentration in soil [4]: 22.1 μg NH4—N/g soil
- Average nitrate concentration in soil [4]: 216.6 μg NO3—N/g soil
